Laboratory results: patent US7973162B2, “Modulators of muscarinic receptors” (Vertex Pharmaceuticals Incorporated, priority 2007, dated 2011)
pEC50: −log10 of the molar value.

Legend:
Format in all cases: cell-based
[1] = molecular target: T1, M1 muscarinic receptor (Homo sapiens, UniProt P11229); assay: Functional mobilization of intracellular calcium (FLIPR), M1-CHO cells; conditions: for pEC50: CHO cells expressing M1, calcium mobilization
T1 construct: expressed in transfected cells; host or cells: CHO (M1-CHO)
T1 sequence (P11229 1-460): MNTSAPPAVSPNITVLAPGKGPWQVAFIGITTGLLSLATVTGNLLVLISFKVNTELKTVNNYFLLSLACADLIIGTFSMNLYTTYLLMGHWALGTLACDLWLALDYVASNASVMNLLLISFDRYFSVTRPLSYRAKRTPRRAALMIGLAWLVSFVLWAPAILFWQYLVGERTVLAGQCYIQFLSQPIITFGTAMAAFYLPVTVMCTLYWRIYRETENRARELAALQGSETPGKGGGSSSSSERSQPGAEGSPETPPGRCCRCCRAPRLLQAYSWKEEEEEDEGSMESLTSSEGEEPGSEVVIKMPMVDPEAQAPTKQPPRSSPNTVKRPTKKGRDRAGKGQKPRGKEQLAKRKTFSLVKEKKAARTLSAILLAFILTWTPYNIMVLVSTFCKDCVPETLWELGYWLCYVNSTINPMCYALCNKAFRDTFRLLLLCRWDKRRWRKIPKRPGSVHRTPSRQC
Method: (§1) Functional Mobilization of Intracellular Calcium to Determine Muscarinic Receptor Activity:
(§2) CHO cells expressing muscarinic receptors (M1 to M5) are grown as monolayers in tissue culture flasks at 37° C. in a humidified atmosphere containing 5% CO2 and passaged every 3-5 days. The growth media is Dulbecco's modified eagles medium (DMEM, Gibco Cat# 12430-054), containing 25 mM Hepes and supplemented with Fetal Bovine Serum (Hyclone, cat #SH30071.03), 0.1 mM of MEM non-essential amino acids (GIBCO, Cat #11140-050), 1 mM MEM Sodium Pyruvate (GIBCO Cat #11360-070) and 100 units/ml of Penicillin G and 100 μg/ml of Streptomycin (GIBCO Cat #15140-122). The recombinant muscarinic receptor cell lines are grown under antibiotic pressure with media containing 25 μg/ml zeocin and 500 μg/ml G418 (M1-CHO), 4 μg/ml puromycin, 50 μg/ml zeocin and 2.5 μg/ml blasticidin (M2 and M4-CHO) or 50 μg/ml zeocin and 4 μg/ml puromycin (M3 and M5-CHO).
(§3) Cells are harvested at 80-90% confluence using Versene (GIBCO Cat #15040-066), collected by centrifugation and seeded 18-24 hrs prior to running the calcium assay at a density of 5,000-10,000 cells/well in […], clear-bottomed 384-well plates (BD Biocoat, poly-D-lysine, Cat#356663). The day of the experiment, the cells are washed with a plate washer (Bioteck Instruments, ELX 405) using bath1 buffer (140-mM NaCl, 4.5-mM KCl, 2-mM CaCl2, 1-mM MgCl2, 10-mM Hepes-Na, 10-mM Glucose, pH 7.4, with NaOH) containing 1 mM Probenecid. Next, the calcium dye Fluo-3 (25 μl/well of Fluo-3 AM at 4 μM, Molecular Probes F-1241, in Bath 1 buffer containing 1 mM Probenecid) is added to the 25 μl of Bath 1 remaining in each well after the plate wash and the dye is loaded at 37° C. in the tissue culture incubator for 60-90 min. The fluorescent dye is removed using the plate washer with Bath 1 containing 1 mM Probenecid, leaving 25 μl/well of this solution after the wash. Alternatively, cells can be loaded with the calcium indicator from Molecular Devices (Calcium 3 Assay Reagents, Cat #R7181) adding 5 μl of a 5× solution dye in Bath 1 containing 1 mM Probenecid (10 ml per dye flask cat #R7182 to generate a solution 20×) to 20 μl of the same buffer. After loading for 60 min, the experiment can be run without having to remove the dye.
(§4) Compounds are prepared at a 2× fold concentration in a 96-well plate (round bottom, Costar Corning cat #3656), by reconstituting the pre-spotted compounds in bath 1 containing 1 mM probenecid. The final concentration DMSO is 0.5%, and the amount of DMSO is normalized across the assay plate. To determine an agonist action of the compounds on muscarinic receptors, the reconstituted compounds are added (25 μl compound/well) to the cell assay plate (containing 25 μl/well) using the multi-channel robotic system of the FLIPR 3 Instrument (Molecular Devices, Sunnyvale, Calif.). To determine a functional inhibitory action of the compounds on muscarinic receptors, the reconstituted compounds are added (25 μl compound/well) to the assay plate and pre-incubated for 15 min prior to adding 25 μl of Carbachol at 3× the EC80 for each muscarinic subtype. Alternatively, the compounds can be co-applied simultaneously with the agonist. In both assay modes, the fluorescence is recorded for 60 sec (excitation wavelength is […] and emission wavelength 540 nm) using the FLIPR 3 instrument.
(§5) The potency, efficacy and selectivity of the muscarinic compounds were evaluated by screening the compound activity across the whole family (M1 to M5 cells). Compounds were also screened for activity on other proteins such as other GPCRs and ion channels to determine selectivity on M4 receptors.
(§6) Examples of activities and efficacies of the muscarinic compounds of formulae (I, Ia, and Ib) on modulating M1 and M4 receptors are shown below in Table 3. […]

[2] = molecular target: T2, M3 muscarinic receptor (Homo sapiens, UniProt P20309); assay: Functional mobilization of intracellular calcium (FLIPR), M3-CHO cells; conditions: for pEC50: CHO cells expressing M3, calcium mobilization
T2 construct: expressed in transfected cells; host or cells: CHO (M3-CHO)
T2 sequence (P20309 whole entry): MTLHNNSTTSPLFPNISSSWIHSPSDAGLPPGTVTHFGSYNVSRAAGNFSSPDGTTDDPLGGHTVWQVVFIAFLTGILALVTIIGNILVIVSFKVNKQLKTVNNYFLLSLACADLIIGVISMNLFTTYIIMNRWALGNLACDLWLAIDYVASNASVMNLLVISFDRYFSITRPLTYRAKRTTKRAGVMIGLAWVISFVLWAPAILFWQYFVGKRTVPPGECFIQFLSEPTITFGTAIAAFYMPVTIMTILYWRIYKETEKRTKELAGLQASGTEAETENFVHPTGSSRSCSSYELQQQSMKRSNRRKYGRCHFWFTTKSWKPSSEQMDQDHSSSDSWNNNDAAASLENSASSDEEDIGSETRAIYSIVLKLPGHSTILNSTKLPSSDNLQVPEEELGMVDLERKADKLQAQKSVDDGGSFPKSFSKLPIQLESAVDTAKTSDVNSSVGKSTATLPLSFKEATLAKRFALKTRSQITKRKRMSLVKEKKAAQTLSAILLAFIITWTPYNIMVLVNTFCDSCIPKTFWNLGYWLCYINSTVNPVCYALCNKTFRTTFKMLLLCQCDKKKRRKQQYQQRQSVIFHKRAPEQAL
Method: as §1, §2, §3, §4, §5, §6

[3] = molecular target: T3, M4 muscarinic receptor (Homo sapiens, UniProt P08173); assay: Functional mobilization of intracellular calcium (FLIPR), M4-CHO cells; conditions: for pEC50: CHO cells expressing M4, calcium mobilization
T3 construct: expressed in transfected cells; host or cells: CHO (M4-CHO)
T3 sequence (P08173 1-479): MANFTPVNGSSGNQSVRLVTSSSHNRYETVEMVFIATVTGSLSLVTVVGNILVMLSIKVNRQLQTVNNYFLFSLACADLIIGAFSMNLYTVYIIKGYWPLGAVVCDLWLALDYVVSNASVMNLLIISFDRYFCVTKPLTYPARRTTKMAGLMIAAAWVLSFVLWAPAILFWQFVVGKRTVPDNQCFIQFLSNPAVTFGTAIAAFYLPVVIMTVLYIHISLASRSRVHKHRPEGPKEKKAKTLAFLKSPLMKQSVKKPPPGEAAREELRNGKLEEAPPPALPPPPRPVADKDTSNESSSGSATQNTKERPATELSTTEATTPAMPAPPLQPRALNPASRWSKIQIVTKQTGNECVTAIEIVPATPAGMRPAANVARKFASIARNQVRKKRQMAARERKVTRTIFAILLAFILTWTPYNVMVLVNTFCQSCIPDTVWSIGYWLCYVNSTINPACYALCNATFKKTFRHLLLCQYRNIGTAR
Method: as §1, §2, §3, §4, §5, §6

[4] = molecular target: T4, M2 muscarinic receptor (Homo sapiens, UniProt P08172); assay: Functional mobilization of intracellular calcium (FLIPR), M2-CHO cells; conditions: for pEC50: CHO cells expressing M2, calcium mobilization
T4 construct: expressed in transfected cells; host or cells: CHO (M2-CHO)
T4 sequence (P08172 1-466): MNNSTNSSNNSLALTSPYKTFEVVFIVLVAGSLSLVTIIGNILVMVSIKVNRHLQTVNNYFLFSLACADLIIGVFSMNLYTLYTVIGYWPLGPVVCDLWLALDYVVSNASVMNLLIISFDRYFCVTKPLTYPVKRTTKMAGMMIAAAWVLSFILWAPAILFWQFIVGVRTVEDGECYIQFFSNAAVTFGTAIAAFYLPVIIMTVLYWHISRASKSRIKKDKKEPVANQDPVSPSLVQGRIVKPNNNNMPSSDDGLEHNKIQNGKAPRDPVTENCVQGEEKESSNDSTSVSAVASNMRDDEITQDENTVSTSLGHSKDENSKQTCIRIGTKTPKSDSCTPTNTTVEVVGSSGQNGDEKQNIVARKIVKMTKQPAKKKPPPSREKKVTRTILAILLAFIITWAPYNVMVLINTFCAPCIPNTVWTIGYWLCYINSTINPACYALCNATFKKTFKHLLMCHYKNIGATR
Method: as §1, §2, §3, §4, §5, §6

[5] = 100% efficacy = maximum response obtained with the Carbachol control

Row | SMILES | Emax [1, 5] [%] | pEC50 [1] | Emax [2, 5] [%] | pEC50 [2] | Emax [3, 5] [%] | pEC50 [3] | Emax [4, 5] [%] | pEC50 [4] | M1 Efficacy [1, 5] | M3 Efficacy [2, 5] | M4 Efficacy [3, 5] | M2 Efficacy [4, 5]
1 | CCOC(=O)N1CCC(N2CCC3(CC2)C[C@H]2CC(=O)N(CCOC)[C@H]2c2ccccc23)CC1 [Compound 1] | 25 to 100 | > 5.70 | < 25 | < 5.30 | 25 to 100 | > 5.70 | 25 to 100 | > 5.70 |  |  |  | 
2 | CCOC(=O)N1CCC(N2CCC3(CC2)CC2CCOC2c2ccccc23)CC1 (stereo not shown) [Compound 2] | 25 to 100 | > 5.70 | < 25 | < 5.30 | 25 to 100 | > 5.70 | 25 to 100 | > 5.70 |  |  |  | 
3 | CN1C(=O)C[C@@H]2CC3(CCN(C4CC5CCC(C5)C4)CC3)c3ccccc3[C@@H]21 (stereo partly shown) [Compound 3] |  | > 5.70 |  | < 5.30 |  | > 5.70 |  | > 5.70 | ++ (efficacy was calculated to be from 100% to 25%) | + (efficacy was calculated to be less than 25%) | ++ (efficacy was calculated to be from 100% to 25%) | + (efficacy was calculated to be less than 25%)
4 | CCOC(=O)N1CCC(N2CCC3(CC2)CC2CC(=O)OC2c2ccccc23)CC1 (stereo not shown) [Compound 4] | 25 to 100 | > 5.70 | 25 to 100 | < 5.30 | 25 to 100 | > 5.70 | 25 to 100 | > 5.70 |  |  |  | 
5 | O=C1C[C@@H]2CC3(CCN(C4CC5CCC(C5)C4)CC3)c3ccccc3[C@@H]2N1 (stereo partly shown) [Compound 5] | 25 to 100 | > 5.70 | < 25 | < 5.30 | 25 to 100 | > 5.70 | 25 to 100 | > 5.70 |  |  |  | 
6 | c1ccc2c(c1)C1OCCC1CC21CCN(C2C[C@H]3CC[C@@H]2C3)CC1 (stereo partly shown) [Compound 6] | < 25 | < 5.30 | < 25 | < 5.30 | 25 to 100 | > 5.70 | < 25 | < 5.30 |  |  |  | 
7 | O=C1C[C@@H]2CC3(CCN(C4CCCCC4)CC3)c3ccccc3[C@@H]2N1 [Compound 7] | 25 to 100 | > 5.70 | < 25 | < 5.30 | 25 to 100 | > 5.70 | 25 to 100 | > 5.70 |  |  |  | 
8 | c1ccc2c(c1)C1OCCC1CC21CCN(C2CC3CCC(C3)C2)CC1 (stereo not shown) [Compound 8] | 25 to 100 | < 5.30 | < 25 | < 5.30 | 25 to 100 | > 5.70 | < 25 | < 5.30 |  |  |  | 
9 | CCOC(=O)N1CCC(N2CCC3(CC2)C[C@H]2CC(=O)N[C@H]2c2ccccc23)CC1 [Compound 9] | 25 to 100 | > 5.70 | 25 to 100 | > 5.70 | 25 to 100 | > 5.70 | 25 to 100 | > 5.70 |  |  |  | 
10 | CN1C(=O)C[C@@H]2CC3(CCN(C4CCCCCC4)CC3)c3ccccc3[C@@H]21 [Compound 10] | 25 to 100 | 5.30 to 5.70 | < 25 | < 5.30 | 25 to 100 | > 5.70 | 25 to 100 | < 5.30 |  |  |  | 
11 | c1ccc2c(c1)C1OCCC1CC21CCN(C2CCCCCC2)CC1 (stereo not shown) [Compound 11] | 25 to 100 | 5.30 to 5.70 | < 25 | < 5.30 | 25 to 100 | > 5.70 | < 25 | < 5.30 |  |  |  | 
